In brackets after ≈: the same amount, converted by molar mass.
How the values were obtained:
[1] = system: vancomycin-resistant enterococci; assay: broth micro-dilution, mean geometric MIC; assay type: cell-based, Enterococcus faecium and Enterococcus faecalis; conditions: enterococci, 24-hour incubation
[2] = system: Staphylococcus epidermidis 270; assay: broth micro-dilution MIC; assay type: cell-based
Procedure: (§1) The formula I compounds have in vitro and in vivo activity against Gram-positive pathogenic bacteria. The MIC's were determined using a standard broth micro-dilution assay.

[3] = system: Staphylococcus haemolyticus 105; assay: broth micro-dilution MIC; assay type: cell-based
Procedure: as §1

Entercoccus faecium 180 = assay: broth micro-dilution MIC; assay type: cell-based; conditions: Entercoccus faecium 180
Procedure: as §1

[4] = system: Enterococcus gallinarum 245; assay: broth micro-dilution MIC; assay type: cell-based; conditions: Enterococcus gallinarum 245
Procedure: as §1

[5] = system: Staphylococcus haemolyticus 415; assay: broth micro-dilution MIC; assay type: cell-based
Procedure: as §1

Entercoccus faecium 2041 = assay: broth micro-dilution MIC; assay type: cell-based; conditions: Entercoccus faecium 2041
Procedure: as §1

[6] = system: Streptococcus pneumoniae P1; assay: broth micro-dilution MIC; assay type: cell-based
Procedure: as §1

[7] = system: Staphylococcus aureus X778; assay: broth micro-dilution MIC; assay type: cell-based
Procedure: (§2) The MIC's were determined using a standard broth micro-dilution assay.

Entercoccus faecium 276 = assay: broth micro-dilution MIC; assay type: cell-based
Procedure: as §2

[8] = system: Staphylococcus aureus SA1199; assay: broth micro-dilution MIC; assay type: cell-based
Procedure: as §2

[9] = system: Staphylococcus aureus X400; assay: broth micro-dilution MIC; assay type: cell-based
Procedure: as §2

[10] = system: Streptococcus pyogenes C203; assay: broth micro-dilution MIC; assay type: cell-based
Procedure: as §2

[11] = system: Staphylococcus aureus 491; assay: broth micro-dilution MIC; assay type: cell-based
Procedure: as §2

[12] = system: Staphylococcus aureus 446; assay: broth micro-dilution MIC; assay type: cell-based
Procedure: as §2

[13] = system: Entercoccus faecium 180-1; assay: broth micro-dilution MIC; assay type: cell-based
Procedure: as §2

[14] = system: Staphylococcus aureus SA1199A; assay: broth micro-dilution MIC; assay type: cell-based
Procedure: as §2

[15] = system: Staphylococcus aureus 447; assay: broth micro-dilution MIC; assay type: cell-based
Procedure: as §2

[16] = system: vancomycin-susceptible enterococci; assay: broth micro-dilution, mean geometric MIC; assay type: cell-based, Enterococcus faecium and Enterococcus faecalis; conditions: enterococci, 24-hour incubation
[17] = system: Staphylococcus aureus S13E; assay type: cell-based
Procedure: as §2

[18] = system: Staphylococcus aureus SA1199B; assay type: cell-based
Procedure: as §2

[19] = system: Staphylococcus aureus 489; assay: broth micro-dilution MIC; assay type: cell-based
Procedure: as §2

Structure (SMILES) | mean geometric MIC, Vancomycin Resistant Strains [1] | MIC [2] | MIC [3] | MIC (Entercoccus faecium 180) | MIC [4] | MIC [5] | MIC (Entercoccus faecium 2041) | MIC [6] | MIC [7] | MIC (Entercoccus faecium 276) | MIC [8] | MIC [9] | MIC [10] | MIC [11] | MIC [12] | MIC [13] | MIC [14] | MIC [15] | mean geometric MIC, Vancomycin Sensitive Strains [16] | MIC [17] | other results
CNC(CC(C)C)C(=O)NC1C(=O)NC(CC(N)=O)C(=O)NC2C(=O)NC3C(=O)NC(C(=O)NC(C(=O)O)c4cc(O)cc(O)c4-c4cc3ccc4O)C(OC3CC(C)(N)C(O)C(C)O3)c3ccc(c(Cl)c3)Oc3cc2cc(c3OC2OC(CO)C(O)C(O)C2OC2CC(C)(NCC3=CCC4CC3C4(C)C)C(O)C(C)O2)Oc2ccc(cc2Cl)C1O (centres unmarked) [Compound 170] | 8.0 µg/mL | 1 µg/mL (≈ 0.579 µM) | 4 µg/mL (≈ 2.32 µM) | 2 µg/mL (≈ 1.16 µM) | 4 µg/mL (≈ 2.32 µM) | 4 µg/mL (≈ 2.32 µM) | ≤ 0.06 µg/mL | ≤ 0.06 µg/mL | 1 µg/mL (≈ 0.579 µM) | 0.5 µg/mL (≈ 0.29 µM) | 1 µg/mL (≈ 0.579 µM) | 0.5 µg/mL (≈ 0.29 µM) | ≤ 0.06 µg/mL | 0.5 µg/mL (≈ 0.29 µM) | 2 µg/mL (≈ 1.16 µM) | ≤ 0.06 µg/mL | ≤ 0.06 µg/mL | 0.5 µg/mL (≈ 0.29 µM) | 0.22 µg/mL | – | –
CNC(CC(C)C)C(=O)NC1C(=O)NC(CC(N)=O)C(=O)NC2C(=O)NC3C(=O)NC(C(=O)NC(C(=O)O)c4cc(O)cc(O)c4-c4cc3ccc4O)C(OC3CC(C)(N)C(O)C(C)O3)c3ccc(c(Cl)c3)Oc3cc2cc(c3OC2OC(CO)C(O)C(O)C2OC2CC(C)(NCc3ccc(-c4ccc(OC)cc4)s3)C(O)C(C)O2)Oc2ccc(cc2Cl)C1O (centres unmarked) [Compound 71] | 11 µg/mL | 2 µg/mL (≈ 1.11 µM) | 16 µg/mL (≈ 8.91 µM) | 4 µg/mL (≈ 2.23 µM) | 8 µg/mL (≈ 4.46 µM) | 8 µg/mL (≈ 4.46 µM) | 1 µg/mL (≈ 0.557 µM) | – | 2 µg/mL (≈ 1.11 µM) | 2 µg/mL (≈ 1.11 µM) | 1 µg/mL (≈ 0.557 µM) | 1 µg/mL (≈ 0.557 µM) | – | 2 µg/mL (≈ 1.11 µM) | 4 µg/mL (≈ 2.23 µM) | – | – | 4 µg/mL (≈ 2.23 µM) | 0.57 µg/mL | 1 µg/mL (≈ 0.557 µM) | MIC [18]: 4 µg/mL (≈ 2.23 µM)
CNC(CC(C)C)C(=O)NC1C(=O)NC(CC(N)=O)C(=O)NC2C(=O)NC3C(=O)NC(C(=O)NC(C(=O)O)c4cc(O)cc(O)c4-c4cc3ccc4O)C(OC3CC(C)(N)C(O)C(C)O3)c3ccc(c(Cl)c3)Oc3cc2cc(c3OC2OC(CO)C(O)C(O)C2OC2CC(C)(NCc3ccc(N4CCC(C)CC4)cc3)C(O)C(C)O2)Oc2ccc(cc2Cl)C1O (centres unmarked) [Compound 129] | 27 µg/mL | 1 µg/mL (≈ 0.562 µM) | 4 µg/mL (≈ 2.25 µM) | 4 µg/mL (≈ 2.25 µM) | 0.125 µg/mL (≈ 0.0702 µM) | 4 µg/mL (≈ 2.25 µM) | ≤ 0.06 µg/mL | ≤ 0.06 µg/mL | – | 0.125 µg/mL (≈ 0.0702 µM) | – | – | ≤ 0.06 µg/mL | 0.5 µg/mL (≈ 0.281 µM) | 2 µg/mL (≈ 1.12 µM) | ≤ 0.06 µg/mL | ≤ 0.06 µg/mL | 1 µg/mL (≈ 0.562 µM) | 1.52 µg/mL | – | MIC [19]: ≤ 0.06 µg/mL
CNC(CC(C)C)C(=O)NC1C(=O)NC(CC(N)=O)C(=O)NC2C(=O)NC3C(=O)NC(C(=O)NC(C(=O)O)c4cc(O)cc(O)c4-c4cc3ccc4O)C(OC3CC(C)(N)C(O)C(C)O3)c3ccc(c(Cl)c3)Oc3cc2cc(c3OC2OC(CO)C(O)C(O)C2OC2CC(C)(NCc3ccc(O)c(O)c3)C(O)C(C)O2)Oc2ccc(cc2Cl)C1O (centres unmarked) [Compound 145] | – | 1 µg/mL (≈ 0.583 µM) | 2 µg/mL (≈ 1.17 µM) | 4 µg/mL (≈ 2.33 µM) | – | 8 µg/mL (≈ 4.67 µM) | – | ≤ 0.06 µg/mL | 0.125 µg/mL (≈ 0.0729 µM) | 0.125 µg/mL (≈ 0.0729 µM) | – | – | ≤ 0.06 µg/mL | 0.5 µg/mL (≈ 0.292 µM) | 0.5 µg/mL (≈ 0.292 µM) | ≤ 0.06 µg/mL | ≤ 0.06 µg/mL | 1 µg/mL (≈ 0.583 µM) | 1.3 µg/mL | 0.125 µg/mL (≈ 0.0729 µM) | MIC [19]: ≤ 0.06 µg/mL; MIC [18]: ≤ 0.06 µg/mL
CNC(CC(C)C)C(=O)NC1C(=O)NC(CC(N)=O)C(=O)NC2C(=O)NC3C(=O)NC(C(=O)NC(C(=O)O)c4cc(O)cc(O)c4-c4cc3ccc4O)C(OC3CC(C)(N)C(O)C(C)O3)c3ccc(c(Cl)c3)Oc3cc2cc(c3OC2OC(CO)C(O)C(O)C2OC2CC(C)(NCc3ccc(N4CCN(C)CC4)cc3)C(O)C(C)O2)Oc2ccc(cc2Cl)C1O (centres unmarked) [Compound 146] | – | 2 µg/mL (≈ 1.12 µM) | 2 µg/mL (≈ 1.12 µM) | 8 µg/mL (≈ 4.49 µM) | 0.5 µg/mL (≈ 0.281 µM) | 4 µg/mL (≈ 2.25 µM) | 0.5 µg/mL (≈ 0.281 µM) | ≤ 0.06 µg/mL | ≤ 0.06 µg/mL | 1 µg/mL (≈ 0.562 µM) | ≤ 0.06 µg/mL | 0.5 µg/mL (≈ 0.281 µM) | ≤ 0.06 µg/mL | 1 µg/mL (≈ 0.562 µM) | 0.5 µg/mL (≈ 0.281 µM) | ≤ 0.06 µg/mL | ≤ 0.06 µg/mL | 2 µg/mL (≈ 1.12 µM) | 1.5 µg/mL | 0.5 µg/mL (≈ 0.281 µM) | MIC [18]: ≤ 0.06 µg/mL
CCN(CC)CCOc1ccc(CNC2(C)CC(OC3C(Oc4c5cc6cc4Oc4ccc(cc4Cl)C(OC4CC(C)(N)C(O)C(C)O4)C4NC(=O)C(NC(=O)C6NC(=O)C(CC(N)=O)NC(=O)C(NC(=O)C(CC(C)C)NC)C(O)c6ccc(c(Cl)c6)O5)c5ccc(O)c(c5)-c5c(O)cc(O)cc5C(C(=O)O)NC4=O)OC(CO)C(O)C3O)OC(C)C2O)cc1 (centres unmarked) [Compound 83] | 54 µg/mL | 2 µg/mL (≈ 1.11 µM) | 2 µg/mL (≈ 1.11 µM) | 8 µg/mL (≈ 4.45 µM) | 0.5 µg/mL (≈ 0.278 µM) | 4 µg/mL (≈ 2.22 µM) | 0.5 µg/mL (≈ 0.278 µM) | ≤ 0.06 µg/mL | 0.5 µg/mL (≈ 0.278 µM) | – | 2 µg/mL (≈ 1.11 µM) | 2 µg/mL (≈ 1.11 µM) | ≤ 0.06 µg/mL | 0.5 µg/mL (≈ 0.278 µM) | 1 µg/mL (≈ 0.556 µM) | 0.125 µg/mL (≈ 0.0695 µM) | – | 2 µg/mL (≈ 1.11 µM) | 1.7 µg/mL | 0.125 µg/mL (≈ 0.0695 µM) | MIC [18]: 1 µg/mL (≈ 0.556 µM)
CNC(CC(C)C)C(=O)NC1C(=O)NC(CC(N)=O)C(=O)NC2C(=O)NC3C(=O)NC(C(=O)NC(C(=O)O)c4cc(O)cc(O)c4-c4cc3ccc4O)C(O)c3ccc(c(Cl)c3)Oc3cc2cc(c3OC2OC(CO)C(O)C(O)C2OC2CC(C)(NCc3cccc4ccccc34)C(O)C(C)O2)Oc2ccc(cc2Cl)C1O (centres unmarked) [Compound 180] | > 128 µg/mL | – | 2 µg/mL (≈ 1.26 µM) | 8 µg/mL (≈ 5.03 µM) | 0.25 µg/mL (≈ 0.157 µM) | 2 µg/mL (≈ 1.26 µM) | 0.25 µg/mL (≈ 0.157 µM) | ≤ 0.06 µg/mL | ≤ 0.06 µg/mL | 2 µg/mL (≈ 1.26 µM) | – | ≤ 0.06 µg/mL | ≤ 0.06 µg/mL | 0.5 µg/mL (≈ 0.315 µM) | – | – | ≤ 0.06 µg/mL | – | 0.71 µg/mL | ≤ 0.06 µg/mL | MIC [19]: ≤ 0.06 µg/mL; MIC [18]: ≤ 0.06 µg/mL
CCCCCC1CCC(c2ccc(CNC3(C)CC(OC4C(Oc5c6cc7cc5Oc5ccc(cc5Cl)C(OC5CC(C)(N)C(O)C(C)O5)C5NC(=O)C(NC(=O)C7NC(=O)C(CC(N)=O)NC(=O)C(NC(=O)C(CC(C)C)NC)C(O)c7ccc(c(Cl)c7)O6)c6ccc(O)c(c6)-c6c(O)cc(O)cc6C(C(=O)O)NC5=O)OC(CO)C(O)C4O)OC(C)C3O)cc2)CC1 (centres unmarked) [Compound 34] | 4.0 µg/mL | – | – | 4 µg/mL (≈ 2.18 µM) | 4 µg/mL (≈ 2.18 µM) | – | 8 µg/mL (≈ 4.36 µM) | – | – | – | – | – | – | 8 µg/mL (≈ 4.36 µM) | – | 2 µg/mL (≈ 1.09 µM) | 2 µg/mL (≈ 1.09 µM) | 8 µg/mL (≈ 4.36 µM) | 3.4 µg/mL | – | MIC [19]: 8 µg/mL (≈ 4.36 µM)
CNC(CC(C)C)C(=O)NC1C(=O)NC(CC(N)=O)C(=O)NC2C(=O)NC3C(=O)NC(C(=O)NC(C(=O)O)c4cc(O)cc(O)c4-c4cc3ccc4O)C(OC3CC(C)(N)C(O)C(C)O3)c3ccc(c(Cl)c3)Oc3cc2cc(c3OC2OC(CO)C(O)C(O)C2OC2CC(C)(NCc3ccc(NC(=O)c4cccc(F)c4)cc3)C(O)C(C)O2)Oc2ccc(cc2Cl)C1O (centres unmarked) [Compound 194] | 2.4 µg/mL | 0.5 µg/mL (≈ 0.275 µM) | 1 µg/mL (≈ 0.55 µM) | ≤ 0.06 µg/mL | 2 µg/mL (≈ 1.1 µM) | 2 µg/mL (≈ 1.1 µM) | ≤ 0.06 µg/mL | ≤ 0.06 µg/mL | 0.5 µg/mL (≈ 0.275 µM) | – | 0.5 µg/mL (≈ 0.275 µM) | ≤ 0.06 µg/mL | ≤ 0.06 µg/mL | ≤ 0.06 µg/mL | ≤ 0.06 µg/mL | ≤ 0.06 µg/mL | ≤ 0.06 µg/mL | 0.5 µg/mL (≈ 0.275 µM) | 0.083 µg/mL | ≤ 0.06 µg/mL | –

From patent US5840684A, “Glycopeptide antibiotic derivatives” (Eli Lilly and Company, priority 1995, dated 1998)
